Experimental data published in patent US20070219214A1, “Dual NK2/NK3-antagonists, pharmaceutical compositions comprising them, and processes for their preparation” (Solvay pharmaceuticals GmbH, priority 2006, published 2007).
Like-named read-outs stand apart in the source and are kept apart here.

Tests used:
[1] = biological target: T1, human NK2-receptor (Homo sapiens, UniProt P21452); test: Functional cellular test, Ca2+ measurements using FLIPR for NK2 activity; details: for pA2 data for NK2: CHO cells, human NK2, FLIPR Ca2+, agonist NKA 10^-7 M;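 for all read-outs here: CHO cells stably expressing the human receptor, loaded with a calcium dye, antagonist inhibition of ligand-evoked intracellular calcium rise read as peak fluorescence change on FLIPR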
T1 sequence (P21452 1-398): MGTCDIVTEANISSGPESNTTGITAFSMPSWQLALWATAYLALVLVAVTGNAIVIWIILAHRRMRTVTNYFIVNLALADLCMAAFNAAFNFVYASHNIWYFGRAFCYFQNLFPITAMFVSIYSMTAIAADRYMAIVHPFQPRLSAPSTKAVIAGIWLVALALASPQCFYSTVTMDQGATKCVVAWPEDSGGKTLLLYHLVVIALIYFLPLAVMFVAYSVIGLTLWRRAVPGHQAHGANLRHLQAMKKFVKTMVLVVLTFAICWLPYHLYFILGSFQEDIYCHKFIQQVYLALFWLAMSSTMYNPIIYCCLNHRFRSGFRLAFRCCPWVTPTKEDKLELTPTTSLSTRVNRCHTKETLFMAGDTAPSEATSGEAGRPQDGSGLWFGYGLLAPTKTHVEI
Method: Functional Cellular Tests of the NK1-, NK2- and NK3-Antagonism
Functional cellular tests of the antagonistic effect of the compounds of the present invention on the human tachykinin receptors were performed in CHO cells expressing the recombinant human NK1, NK2 or NK3-receptor. In these tests the inhibition of ligand-induced increase in mobilization of intracellular calcium and inhibition of ligand-induced phosphorylation of mitogen activated protein kinase (MAPK) were determined, which can be used as a measure of functional activity of tachykinin-antagonists. Additionally, the antagonistic properties of reference compounds on the different tachykinin receptors were characterized for comparison.
The effects of test compounds were assessed using Chinese hamster ovary (CHO) fibroblast cells, stably expressing cloned human NK1, NK2 or NK3-receptors. The NK receptor is coupled to Gq. The activation of the Gq protein by ligand binding to the receptor leads to a mobilization of intracellular calcium and phosphorylation of MAPK. Both systems were used to determine functional effects of the test compounds.
Ca^2+ Measurements Using FLIPR for NK1 and NK2 Activity
For tests, cells were seeded 24 hours prior to the experiment into black 96-well microplates. The cell density was 2.2×10^4 cells/well. All steps were done under sterile conditions. In order to observe changes in intracellular calcium levels, cells were loaded with a calcium-sensitive dye. This dye (FLUO-4, from Molecular Probes) excites at 488 nm, and emits in the 500 nm to 560 nm range, only if a complex with calcium is formed. For the dye loading the growth-medium was aspirated out of the well without disturbing the confluent cell layer and 100 μl loading medium (HBSS, 4 μM FLUO-4, 0.005% (w/v) pluronic acid, 2.5 mM probenecid, 20 mM HEPES, pH 7.4) was dispensed into each well using an automatic pipettor system (Multidrop, Labsystems). Pluronic acid was added to increase dye solubility and dye uptake into the cells, whereas probenecid, an anion exchange inhibitor, was added to the loading medium to increase dye retention in the cells. The cells were incubated in a 5% CO2 incubator at 37° C. for 40 minutes. After dye loading, the cells were washed three times with wash-buffer (HBSS, 2.5 mM probenecid, 20 mM HEPES, pH 7.4) to reduce basal fluorescence. In the last washing step the buffer was aspirated and replaced with 100 μl washing buffer. […] The FLIPR setup parameters were set to 0.4 sec exposure length, filter 1, 50 μl fluid addition, pipettor height at 125 μl, dispense speed 40 μl/sec without mixing. Maximal fluorescence changes were obtained using the statistic function of the FLIPR software, and data plotted using GraphPad Prism 4. All points were expressed as a percentage inhibition of the control agonist. IC50 values were determined using sigmoidal dose-response curve fitting. Antagonist potencies (pA2) values were calculated using equation: pA2=−log(IC50/(1+[L]/EC50)),

[2] = biological target: T2, human NK3 receptor (Homo sapiens, UniProt P29371); test: Binding potency of the test substances to NK3-receptors in vitro ([3H]-SR 142801 displacement); parameters: expressed in transfected cells; host or cells: CHO cells (membrane preparation); details: human NK3-receptor in CHO cell membranes, [3H]-SR 142801 (osanetant), average of at least three measurements; for Ki: read-out: pKi, binding potency to NK3-receptors (converted)
T2 sequence (P29371 1-465): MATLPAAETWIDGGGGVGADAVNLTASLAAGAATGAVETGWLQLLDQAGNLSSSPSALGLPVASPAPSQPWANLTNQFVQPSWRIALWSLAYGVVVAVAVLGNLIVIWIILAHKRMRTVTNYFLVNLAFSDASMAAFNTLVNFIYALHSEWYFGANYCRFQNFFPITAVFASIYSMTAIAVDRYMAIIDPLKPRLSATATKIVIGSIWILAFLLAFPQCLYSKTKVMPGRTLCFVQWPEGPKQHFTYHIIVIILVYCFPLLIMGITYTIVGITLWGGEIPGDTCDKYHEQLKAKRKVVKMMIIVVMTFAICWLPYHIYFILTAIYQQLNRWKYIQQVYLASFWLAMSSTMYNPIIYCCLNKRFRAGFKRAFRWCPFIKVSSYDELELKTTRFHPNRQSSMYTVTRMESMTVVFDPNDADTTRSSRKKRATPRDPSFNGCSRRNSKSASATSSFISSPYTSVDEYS
Procedure, shortened: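 [3H]-osanetant displacement on membranes from CHO cells stably expressing the human receptor, with bound ligand separated by filtration and counted by scintillation. Nonspecific binding defined with 1 μmol/l unlabeled osanetant. IC50 converted to Ki by Cheng-Prusoff and reported as pKi, averaged over measurements.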

[3] = biological target: T3, NK3-receptor (Cavia porcellus, UniProt P30098); test: NK-3-receptor-antagonistic effectiveness in vivo, senktide-induced hypertension in guinea pigs; details: guinea pig; for ID50 (iv), inhibition of blood pressure / ID50 (po), inhibition of blood pressure: senktide 0.4 μg/kg i.v.; for ID50 (iv), inhibition of blood pressure: intravenous administration; for ID50 (po), inhibition of blood pressure: oral administration
T3 construct: from tissue; host or cells: whole animal (Dunkin Hartley guinea pigs), in vivo
T3 sequence (P30098 1-440): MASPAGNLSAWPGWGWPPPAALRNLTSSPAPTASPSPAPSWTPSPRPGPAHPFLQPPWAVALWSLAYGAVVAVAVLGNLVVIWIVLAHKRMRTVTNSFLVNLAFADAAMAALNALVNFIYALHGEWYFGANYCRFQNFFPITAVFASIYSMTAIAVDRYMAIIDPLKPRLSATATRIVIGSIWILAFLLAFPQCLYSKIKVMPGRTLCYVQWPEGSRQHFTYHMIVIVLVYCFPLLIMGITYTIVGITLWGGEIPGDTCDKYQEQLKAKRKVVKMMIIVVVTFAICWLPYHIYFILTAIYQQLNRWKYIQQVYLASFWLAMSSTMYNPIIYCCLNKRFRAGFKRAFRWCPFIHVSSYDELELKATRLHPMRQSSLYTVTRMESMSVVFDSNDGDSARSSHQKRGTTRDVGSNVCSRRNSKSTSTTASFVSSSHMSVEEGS
Method: 9. Determination of the NK-3-Receptor-Antagonistic Effectiveness of the Test Substances In Vivo (Reduction of Blood Pressure in Guinea-Pigs with Senktide-Induced Hypertension)
NK3 agonists increase the blood pressure in guinea pigs. The senktide-induced hypertension can be antagonized by administering compounds with NK3-antagonistic properties. Measuring the level of hypertension is indicative of the degree of activity of the test compounds. The effect of the tested compound is assessed in the same experiment to exclude an additional hypertensional effect.
Male Dunkin Hartley guinea pigs with a body weight between 450 and 550 g were anesthetized with Ketamin (200 mg/kg i.m.; Aescoket 10%) and the left carotid artery and left jugular vein were cannulated for blood pressure measurement and drug application, respectively. The animals were allowed to breathe spontaneously. Blood pressure was measured with a strain gauge transducer connected to a computer via an amplifier.
For oral administration, vehicle (1% methylcellulose) or test compound was administered in a dose volume of 5 ml/kg. Forty five minutes thereafter, anesthesia was induced and the carotid artery and jugular vein were cannulated.
For intravenous administration, the test compounds were dissolved in 40% hydroxypropyl-β-cyclodextrine (HPCD) containing 10% DMSO, diluted with saline and administered intravenously in cumulative dose ranges. A vehicle group of animals received the corresponding HPCD/DMSO solutions instead of the test compound. For oral administration, the test compound was suspended in 1% methylcellulose. A vehicle group of animals received the corresponding […] of the test compound.

[4] = iv, read-out: ID50 (iv), inhibition of blood pressure

| SMILES | pA2 data for NK2 [1] | pKi, binding potency to NK3-receptors [2] | ED50 [3, 4] [mg/kg] | Kb [1] [nM] | Ki [2] [nM] | ED50 ([3]; po, read-out: ID50 (po), inhibition of blood pressure) [mg/kg] | ID50 (iv), inhibition of blood pressure [3] [mg/kg] | ID50 (po), inhibition of blood pressure [3] [mg/kg] |
| --- | --- | --- | --- | --- | --- | --- | --- | --- |
| CN(C)C(=O)C1(N2CCCCC2)CCN(CC[C@H](CN(C)C(=O)C2CCCCC2)c2ccc(Cl)c(Cl)c2)CC1 [compound 3] | 8.7 | 8.2 |  |  |  |  |  |  |
| CN(C)C(=O)C1(N2CCCCC2)CCN(CC[C@H](CN(C)C(=O)c2ccc(O)cc2)c2ccc(Cl)c(Cl)c2)CC1 [compound 6, 1′-{(3S)-3-(3,4-dichlorophenyl)-4-[(4-hydroxybenzoyl)-(methyl)amino]butyl}-N,N-dimethyl-1,4′-bipiperidine-4′-carboxamide] |  |  | 0.157 | 1.58 | 2 |  |  |  |
| CN(C)C(=O)C1(N2CCCCC2)CCN(CC[C@H](CN(C)C(=O)c2ccccc2)c2ccc(Cl)c(Cl)c2)CC1 [compound 1] |  |  | 0.256 | 0.2 | 2.51 | 6.38 |  |  |
| CN(C)C(=O)C1(N2CCCCC2)CCN(CC[C@H](CN(C)C(=O)c2cc(F)ccc2F)c2ccc(Cl)c(Cl)c2)CC1 [compound 15] | 8.3 |  |  |  |  |  | 0.3732 |  |
| CN(C)C(=O)C1(N2CCCCC2)CCN(CCC(CN(C)C(=O)c2cccnc2)c2ccc(Cl)c(Cl)c2)CC1 (centres unmarked) [compound 19] |  |  | 0.39 | 0.501 | 31.6 |  |  |  |
| CN(C)C(=O)C1(N2CCCCC2)CCN(CC[C@H](CN(C)C(=O)c2ccc(F)c(F)c2)c2ccc(Cl)c(Cl)c2)CC1 [compound 14] | 8.2 |  |  |  |  |  | 0.5168 | 6.811 |
| CN(C)C(=O)C1(N2CCCCC2)CCN(CCC(CN(C)C(=O)c2ccc(Cl)nc2)c2ccc(Cl)c(Cl)c2)CC1 (centres unmarked) [compound 18] |  |  | 1.01 | 3.16 | 5.01 |  |  |  |
| CN(C)C(=O)C1(N2CCCCC2)CCN(CC[C@H](CN(C)C(=O)c2ccc(F)cc2)c2ccc(Cl)c(Cl)c2)CC1 [compound 4] | 8.6 | 8.2 |  |  |  |  | 0.7564 | 2.3313 |
| CN(C)C(=O)C1(N2CCCCC2)CCN(CC[C@H](CN(C)C(=O)c2ccc(F)cc2F)c2ccc(Cl)c(Cl)c2)CC1 [compound 13] | 8.3 | 7.4 |  |  |  |  | 0.5013 | <10 |
| CN(C)C(=O)C1(N2CCCCC2)CCN(CC[C@H](CN(C)C(=O)c2cc(C#N)c3ccccc3c2)c2ccc(Cl)c(Cl)c2)CC1 [compound 11] | 8.4 | 7.9 |  |  |  |  | 1.0554 | 10 |
